Measurements as given in patent US20070203212A1, “METHOD OF TREATING OSTEOARTHRITIS” (WARNER-LAMBERT COMPANY, priority 2002, published 2007).

Experiments:
[1] = tested on: monosodium iodoacetate (MIA)-induced osteoarthritis; experiment: MIA rat model, acute single oral dose: change in hind paw weight distribution (joint pain); type: in vivo; settings: for Day 7 2 hr. (% ± SEM) inhibition of MIA-induced change in hind paw weight distribution / Day 7 4 hr. (% ± SEM) inhibition of MIA-induced change in hind paw weight distribution / Day 7 6 hr. (% ± SEM) inhibition of MIA-induced change in hind paw weight distribution / Day 14 2 hr. (% ± SEM) inhibition of MIA-induced change in hind paw weight distribution / Day 14 4 hr. (% ± SEM) inhibition of MIA-induced change in hind paw weight distribution / Day 14 6 hr. (% ± SEM) inhibition of MIA-induced change in hind paw weight distribution: single oral dose 30 mg/kg; for Day 7 2 hr. (% ± SEM) inhibition of MIA-induced change in hind paw weight distribution: Day 7, 2 hours post dose; for Day 7 4 hr. (% ± SEM) inhibition of MIA-induced change in hind paw weight distribution: Day 7, 4 hours post dose; for Day 7 6 hr. (% ± SEM) inhibition of MIA-induced change in hind paw weight distribution: Day 7, 6 hours post dose; for Day 14 2 hr. (% ± SEM) inhibition of MIA-induced change in hind paw weight distribution: Day 14, 2 hours post dose; for Day 14 4 hr. (% ± SEM) inhibition of MIA-induced change in hind paw weight distribution: Day 14, 4 hours post dose; for Day 14 6 hr. (% ± SEM) inhibition of MIA-induced change in hind paw weight distribution: Day 14, 6 hours post dose
Method: (§1) It should be appreciated that in Biological Methods 1, 2, 4, and 5 below, hind paw weight bearing differentials between the paw of the limb having the control joint (in animals administered test compound vehicle only) and the paw of the limb having the contralateral test joint (in control or inducement animals administered test compound vehicle only and in treatment animals administered test compound dissolved in test compound vehicle) were determined using an incapacitance tester, model 2KG (Linton Instrumentation, Norfolk, United Kingdom). The incapacitance tester has a chamber on top with an outwardly sloping front wall that supports a rat's front limbs, and two weight sensing pads, one for each hind paw, that facilitates this determination. The hind paw weight bearing differentials were expressed in grams and calculated as follows: (the average weight in grams placed on the control limb minus the average weight in grams placed on the contralateral test limb for each of the inducement or treatment animals) minus (the average weight in grams placed on the control limb minus the average weight in grams placed on the contralateral test limb for each of the control animals). All results were statistically analyzed by comparing the average results for an induction or treatment group with the average result for its control group at the same time point using analysis of covariance (“ANCOVA”) followed by the Hoehberg's procedure and those with statistical significance had p<0.05 unless otherwise noted.
The rats were anesthetized with 5% volume/volume (“v/v”) isoflurane gas and maintained with 2% v/v isoflurane gas. The anesthetized rats were given a single intra-articular injection of 1 mg of MIA through the infrapatellar ligament of the right knee. MIA was dissolved in physiologic saline and administered in a volume of 50 μL. The contralateral control knee was injected with 50 μL of physiologic saline. Administration of isoflurane gas was discontinued, and the rats became fully conscious about 5 minutes later.
Shifts in hind paw weight distribution from the right to the left hind paws supporting the right (arthritic) and the left (contralateral control) hind leg knee joints were utilized as an index of joint pain and as a measure of compound efficacy. An incapacitance tester (Model 2KG, Linton Instrumentation, UK) was employed for determination of hind paw weight distribution. Each data point is the mean of three readings of 5 seconds duration.
CI-1027 (i.e., 6-(5-carboxy-5-methyl-hexyloxy)-2,2-dimethyl-hexanoic acid, calcium salt) was dissolved in hydroxypropylmethylcellulose (“HPMC”) vehicle (0.05% HPMC+0.2% Tween 80; compound amount was adjusted based on the percent of free acid, i.e., 6-(5-carboxy-5-methyl-hexyloxy)-2,2-dimethyl-hexanoic acid).
[…] Rats were then given a single, 10, 30, or 100 mg/kg, dose of CI-1027 via oral gavage (PO). Changes in hind paw weight distribution were determined 2, 4 and 6 hours post-compound administration.
6-(5-carboxy-5-methyl-hexyloxy)-2,2-dimethyl-hexanoic acid, calcium salt (“CI-1027”) and rofecoxib was tested in the rat MIA model in an acute dosing paradigm as described previously. MIA was injected into the right knee and saline into the left knee of all rats on Day 0. […] Two hours later, the rats were reassessed. The results for inhibition of pain, expressed as a percentage±standard error of the mean, are shown below in Table 5. The percent inhibition of pain was determined as described above in Biological Method 1. […] N=8 rats per group.

[2] = tested on: carrageenan-induced thermal hyperalgesia; experiment: Carrageenan-induced thermal hyperalgesia (CITH), paw withdrawal latency; type: in vivo, rat; settings: Day 1
Method: Male Sprague Dawley rats (200-300 g), obtained from Charles River, were housed in groups of 2 under a 12 hour light/dark cycle with food and water ad libitum. Animals were allowed to acclimate to the test room one hour prior to testing.
Thermal hyperalgesia was assessed using the rat plantar test (apparatus from Univ. California, San Diego) following a modified method of Hargreaves et al., 1988. Rats were habituated to the apparatus, which consisted of three perspex boxes that individually housed […] on an elevated glass table. A mobile radiant heat source (halogen lamp) was located under the glass table and focused onto the hind paw. Paw withdrawal latencies (PWL) were recorded in seconds (“s”). An automatic cut off point of 22.5 s was set to prevent tissue damage. The mean of 2-3 PWL was taken at each time point for both hind paws of each animal. The apparatus was calibrated to give a PWL of approximately 10 s before carrageenan administration.
After basal PWL were determined, animals receive an intraplantar 100 μL of 10 mg/mL) into the right hind paw. Lambda carrageenan (Sigma Chemical Co.) was dissolved in isotonic saline 5 minutes prior to injecting. PWL were reassessed following the same protocol 2 hours post carrageenan (this time point represented the start of peak hyperalgesia) to ascertain that hyperalgesia had developed. 6-(5-Carboxy-5-methyl-hexyloxy)-2,2-dimethyl-hexanoic acid, calcium salt was then administered orally via oral dosing needles 2.5 hours post carrageenan injection, and PWL were taken again at 30- or 60-minute intervals post drug administration for 6 hours.
Data consisted of the mean of 2-3 reads/paw for individual animals. Group data was the compiled individual means. Percent inhibition was calculated as follows for each time point: (mean drug treated−mean control)/(mean baseline−mean control)×100.

[3] = tested on: monoclonal antibody-induced arthritis; experiment: Monoclonal antibody-induced arthritis (MAIA) mouse model, footpad and ankle swelling; type: in vivo; set-up: footpad and ankle swelling: dose or concentration left out as unconfirmed; settings: BALB/c mice
Method: In a typical MAIA experiment, groups of four mice were injected intraperitoneally (“i.p.”) with 0.4 mL (BALB/c and DBA/1 strains) or 0.8 mL (C57BL/6, 129X1/SvJ, C3H/HeJ, and C3H/FeJ strains) with a 10 mg/mL solution of Arthrogen-CIA Monoclonal Antibody Blend (Chemicon International, Inc.). Two days later, the mice were injected i.p. with 0.2 mL of a 0.25 mg/mL solution of LPS (lipopolysaccharide form Escherichia coli (“E. coli”) strain 0111B4) in PBS. Footpad and ankle size was assessed using a Dyer Digital Caliper (#655-030-4916) on the day of mAb injection, and every two days following LPS injection.

[4] = tested on: human recombinant IL-6/IL-6sR induced joint pain; experiment: IL-6 with IL-6 soluble receptor induced joint pain in rat; type: in vivo; settings: single oral dose 30 mg/kg
Method: as §1
Human recombinant IL-6 (100 ng per rat; R&D Systems, Minneapolis, Minn.) was incubated at room temperature with human recombinant IL-6 soluble receptor (300 ng per rat; R&D Systems, Minneapolis, Minn.) in phosphate buffered saline (“PBS”) for 15 minutes prior to injection. Rats were anesthetized with 5% volume/volume (“v/v”) isoflurane gas and maintained with 2% v/v isoflurane gas. The anesthetized rats were given a single intra-articular injection of IL-6/WL-6sR through the infrapatellar ligament of the right knee in a volume of 50 μL. The contralateral control knee was injected with 50 μL of PBS. Administration of isoflurane gas was discontinued, and the rats became fully conscious about 5 minutes later.
Shifts in hind paw weight distribution from the right (arthritic) to the left (contralateral control) paws were utilized as an index of joint pain and as a measure of compound efficacy. An incapacitance tester (Model 2KG, Linton Instrumentation, UK) was employed for determination of hind paw weight distribution. Each data point is the mean of three, 5-second readings.
CI-1027 was dissolved in BPMC vehicle as described above. Baseline changes in hind paw weight distribution readings were determined one day prior to injection of IL-6/IL-6sR. On the day of the experiment (Day 0), a single dose of CI-1027 (10, 30 or 100 mg/kg) was given via oral gavage 3 hours prior to injection of IL-6/IL-6sR (n=10 rats per group). Changes in hind paw weight distribution were determined one, three, and six hours after injection of IL-6/IL-6sR.
In Table 4 below, data from the method of Biological Method 5 are expressed as a percent inhibition of a change in hind paw weight distribution ± the standard error of the mean. The percents inhibition were calculated as follows. Percent inhibition of a change in hind paw weight distribution [formula] wherein: ΔWC is the hind-paw weight differential between the healthy limb and the hrIL-6+ hrIL-6sR injected limb of the control animal group administered vehicle alone, as measured at time 1, 3, or 6 hours post injection; and
ΔWG is the hind-paw weight differential between the healthy limb and the hrIL-6+ hrIL-6sR injected limb of a treatment animal group as measured at time 1, 3, or 6 hours post injection.

SMILES	Day 7 2 hr. (% ± SEM) inhibition of MIA-induced change in hind paw weight distribution [1]	Day 7 4 hr. (% ± SEM) inhibition of MIA-induced change in hind paw weight distribution [1]	Day 7 6 hr. (% ± SEM) inhibition of MIA-induced change in hind paw weight distribution [1]	Day 14 2 hr. (% ± SEM) inhibition of MIA-induced change in hind paw weight distribution [1]	Day 14 4 hr. (% ± SEM) inhibition of MIA-induced change in hind paw weight distribution [1]	Day 14 6 hr. (% ± SEM) inhibition of MIA-induced change in hind paw weight distribution [1]	CITH (%) percentage inhibition, paw withdrawal latency ([2]; single oral dose 30 mg/kg)	footpad and ankle swelling [3]	1 hr. (% ± SEM) inhibition of (IL-6/IL-6sR)-induced change in hind paw weight distribution ([4]; Day 1, 1 hour post injection of IL-6/IL-6sR)	3 hr. (% ± SEM) inhibition of (IL-6/IL-6sR)-induced change in hind paw weight distribution ([4]; Day 1, 3 hours post injection of IL-6/IL-6sR)	6 hr. (% ± SEM) inhibition of (IL-6/IL-6sR)-induced change in hind paw weight distribution ([4]; Day 1, 6 hours post injection of IL-6/IL-6sR)	CITH (%) percentage inhibition, paw withdrawal latency ([2]; single oral dose 100 mg/kg)	Mean pain alleviation at 2 hours post administration (% ± SEM) ([1]; rofecoxib 3 mg/kg PO alone, Day 14)
CC(C)(CCOCCC(C)(C)C(=O)O)C(=O)O [A3, 4,4′-oxybis(2,2-dimethylbutanoic acid)]	20 ± 4%	34 ± 5%	81 ± 6%	33 ± 7%	36 ± 3%	27 ± 9%	20%	–	–	–	–	–	–
CC(C)(CCCOCCCC(C)(C)C(=O)O)C(=O)O [A2, 5,5′-oxybis(2,2-dimethylpentanoic acid)]	−11 ± 15^ %	16 ± 15%	–	9 ± 13%	9 ± 20%	–	−3%	–	–	–	–	–	–
CC(C)(CCCCCOCCCCCC(C)(C)C(=O)O)C(=O)O [A1, 7,7′-oxybis(2,2-dimethylheptanoic acid)]	50 ± 11%	15 ± 14%	–	−3 ± 15%	−9 ± 17%	–	22%	–	–	–	–	–	–
CN(Cc1cnc2nc(N)nc(N)c2n1)c1ccc(C(=O)N[C@@H](CCC(=O)O)C(=O)O)cc1 [methotrexate, N-[4-[[(2,4-diamino-6-pteridinyl)methyl]methylamino]benzoyl]-L-glutamic acid, reference compound]	–	–	–	–	–	–	–	significantly inhibit footpad and ankle swelling	–	–	–	–	–
CC(C)(CCCCCCCCCC(C)(C)C(=O)O)C(=O)O [A4, 2,2,12,12-tetramethyltridecanedioic acid]	25 ± 5%	38 ± 7%	43 ± 6%	35 ± 6%	29 ± 8%	55 ± 7%	118%	–	70 ± 9%	79 ± 5%	26 ± 6%	115%	–
CS(=O)(=O)c1ccc(C2=C(c3ccccc3)C(=O)OC2)cc1 [Rofecoxib, reference compound]	–	–	–	–	–	–	–	–	–	–	–	–	23 ± 7%
